What was measured:
[1] = biological target: T1, Vascular endothelial growth factor receptor 2 (Homo sapiens, UniProt P35968); test: Inhibition of recombinant human VGFR2 by radiometric assay in presence of [gamma-33P]-ATP
[2] = biological target: Tyrosine-protein kinase Fgr (Homo sapiens, UniProt P09769); test: Inhibition of recombinant human FGR by radiometric assay in presence of [gamma-33P]-ATP
[3] = biological target: Dual specificity mitogen-activated protein kinase kinase 1 (Homo sapiens, UniProt Q02750); test: Inhibition of recombinant human MEK1 by radiometric assay in presence of [gamma-33P]-ATP
[4] = Inhibition of recombinant human PKA by radiometric assay in presence of [gamma-33P]-ATP
[5] = biological target: Voltage-gated inwardly rectifying potassium channel KCNH2 (Homo sapiens, UniProt Q12809); test: Inhibition of human ERG assessed as prolongation of QT-interval at 100 uM by patch-clamp assay
[6] = Half life in human liver microsomes; assay type: ADME
[7] = biological target: Proto-oncogene tyrosine-protein kinase receptor Ret (Homo sapiens, UniProt P07949, V804L); test: Inhibition of human Ret V804L mutant by radiometric assay in presence of [gamma-33P]-ATP
[8] = Cytotoxicity against human Nthy-ori 3-1 cells after 10 days by MTT assay; assay type: cell-based
[9] = biological target: Ribosomal protein S6 kinase beta-1 (Homo sapiens, UniProt P23443); test: Inhibition of recombinant human p70S6K by radiometric assay in presence of [gamma-33P]-ATP
[10] = biological target: T1, Vascular endothelial growth factor receptor 2; test: Inhibition of TEL-fused VEGFR2 (unknown origin) expressed in mouse BA/F3 cells assessed as cell growth inhibition; assay type: cell-based; details: baf3
[11] = biological target: Proto-oncogene tyrosine-protein kinase receptor Ret (Homo sapiens, UniProt P07949, V804M); test: Inhibition of human Ret V804M mutant by radiometric assay in presence of [gamma-33P]-ATP
[12] = test system: Proto-oncogene tyrosine-protein kinase receptor Ret (Homo sapiens), P07949 [S891A]; details: BaF3
[13] = Ratio of GI50 for human Nthy-ori-3-1 cells to GI50 for RET C634W mutant-mediated human TT cell growth inhibition
[14] = test system: Proto-oncogene tyrosine-protein kinase receptor Ret (Homo sapiens), P07949 [C634W]; details: TT
Description: Inhibition of RET C634W mutant in human TT cells assessed as cell growth inhibition after 10 days by MTT assay

Cytochrome P450 3A4 = Cytochrome P450 3A4 (Homo sapiens, UniProt P08684); test: Inhibition of CYP3A4 (unknown origin); assay type: ADME
Cytochrome P450 2D6 = Cytochrome P450 2D6 (Homo sapiens, UniProt P10635); test: Inhibition of CYP2D6 (unknown origin); assay type: ADME
[15] = Cell cycle arrest in human Nthy-ori 3-1 cells assessed as accumulation at G2 phase at 10 uM after 24 hrs by […] staining-based flow cytometric analysis; details: nthy-ori 3-1, 24 h
[16] = Induction of apoptosis in human Nthy-ori 3-1 cells at 10 uM after 48 hrs by annexinV/PI staining-based flow cytometric analysis; assay type: cell-based; details: nthy-ori 3-1, 48 h
[17] = biological target: Vascular endothelial growth factor receptor 3 (Homo sapiens, UniProt P35916); test: Inhibition of recombinant human FLT4 by radiometric assay in presence of [gamma-33P]-ATP
TT = test: Cytotoxicity against human TT cells assessed as suppression of anchorage-independent growth at 0.3 to 1 uM for 30 days by soft agar assay; assay type: functional
[18] = test system: Proto-oncogene tyrosine-protein kinase receptor Ret (Homo sapiens), P07949 [V804M]; details: BaF3
[19] = biological target: T2, Proto-oncogene tyrosine-protein kinase receptor Ret (Homo sapiens, UniProt P07949); details: BaF3
Description: Inhibition of wild type TEL-fused RET (unknown origin) expressed in mouse BA/F3 cells assessed as cell growth inhibition after 48 hrs by MTT assay

[20] = biological target: Ribosomal protein S6 kinase alpha-1 (Homo sapiens, UniProt Q15418); test: Inhibition of recombinant human RSK1 by radiometric assay in presence of [gamma-33P]-ATP
[21] = biological target: Dual specificity mitogen-activated protein kinase kinase 2 (Homo sapiens, UniProt P36507); test: Inhibition of recombinant human MEK2 by radiometric assay in presence of [gamma-33P]-ATP
[22] = biological target: Proto-oncogene tyrosine-protein kinase receptor Ret (Homo sapiens, UniProt P07949, Y791F); test: Inhibition of human Ret Y791F mutant by radiometric assay in presence of [gamma-33P]-ATP
[23] = biological target: Proto-oncogene tyrosine-protein kinase receptor Ret (Homo sapiens, UniProt P07949, M918T); test: Inhibition of human Ret M918T mutant by radiometric assay in presence of [gamma-33P]-ATP
Cytochrome P450 2C9 = Cytochrome P450 2C9 (Homo sapiens, UniProt P11712); test: Inhibition of CYP2C9 (unknown origin); assay type: ADME
[24] = biological target: Tyrosine-protein kinase HCK (Homo sapiens, UniProt P08631); test: Inhibition of recombinant human HCK by radiometric assay in presence of [gamma-33P]-ATP
[25] = biological target: T2, Proto-oncogene tyrosine-protein kinase receptor Ret; test: Inhibition of human wild type RET by radiometric assay in presence of [gamma-33P]-ATP
Cytochrome P450 2C19 = Cytochrome P450 2C19 (Homo sapiens, UniProt P33261); test: Inhibition of CYP2C19 (unknown origin); assay type: ADME
[26] = biological target: Proto-oncogene tyrosine-protein kinase receptor Ret (Homo sapiens, UniProt P07949, G691S); test: Inhibition of human Ret G691S mutant by radiometric assay in presence of [gamma-33P]-ATP
Cytochrome P450 1A2 = Cytochrome P450 1A2 (Homo sapiens, UniProt P05177); test: Inhibition of CYP1A2 (unknown origin); assay type: ADME
[27] = Cytotoxicity against mouse BAF3 cells after 48 hrs by MTT assay; assay type: cell-based
[28] = biological target: Proto-oncogene tyrosine-protein kinase receptor Ret (Homo sapiens, UniProt P07949, S891A); test: Inhibition of human Ret S891A mutant by radiometric assay in presence of [gamma-33P]-ATP
[29] = test system: Proto-oncogene tyrosine-protein kinase receptor Ret (Homo sapiens), P07949 [V804L]; details: BaF3

Chain of Proto-oncogene tyrosine-protein kinase receptor Ret (Homo sapiens), P07949 [C634W] (P07949 whole entry C634W): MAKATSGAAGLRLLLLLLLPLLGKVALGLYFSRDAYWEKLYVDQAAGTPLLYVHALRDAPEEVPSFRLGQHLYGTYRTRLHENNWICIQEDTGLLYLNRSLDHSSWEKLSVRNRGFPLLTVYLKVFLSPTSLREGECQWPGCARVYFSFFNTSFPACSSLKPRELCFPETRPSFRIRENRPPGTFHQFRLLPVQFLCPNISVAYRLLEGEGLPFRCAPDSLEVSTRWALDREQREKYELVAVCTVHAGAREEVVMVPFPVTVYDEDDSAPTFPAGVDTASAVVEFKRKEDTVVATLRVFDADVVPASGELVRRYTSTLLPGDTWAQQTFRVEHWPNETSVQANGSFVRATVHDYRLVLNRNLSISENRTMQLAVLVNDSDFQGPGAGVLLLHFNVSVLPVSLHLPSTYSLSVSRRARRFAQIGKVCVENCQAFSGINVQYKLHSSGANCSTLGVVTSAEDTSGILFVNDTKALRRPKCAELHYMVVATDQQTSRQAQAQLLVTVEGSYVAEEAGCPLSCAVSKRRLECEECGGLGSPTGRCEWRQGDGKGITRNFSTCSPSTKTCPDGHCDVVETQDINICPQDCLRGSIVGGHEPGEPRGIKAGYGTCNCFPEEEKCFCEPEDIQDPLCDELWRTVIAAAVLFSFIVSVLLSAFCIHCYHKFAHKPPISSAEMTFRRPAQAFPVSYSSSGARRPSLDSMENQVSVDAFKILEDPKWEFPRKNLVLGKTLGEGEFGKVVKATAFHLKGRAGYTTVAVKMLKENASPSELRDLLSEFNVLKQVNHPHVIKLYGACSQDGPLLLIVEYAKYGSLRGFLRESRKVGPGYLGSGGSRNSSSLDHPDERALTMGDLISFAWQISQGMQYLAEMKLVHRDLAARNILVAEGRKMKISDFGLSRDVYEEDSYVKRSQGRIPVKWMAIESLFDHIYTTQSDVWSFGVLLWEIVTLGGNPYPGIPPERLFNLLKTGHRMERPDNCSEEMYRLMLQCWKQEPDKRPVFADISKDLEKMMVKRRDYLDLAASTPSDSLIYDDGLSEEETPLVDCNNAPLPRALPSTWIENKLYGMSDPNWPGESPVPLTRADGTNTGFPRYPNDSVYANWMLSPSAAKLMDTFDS
T2 sequence (P07949 whole entry): as the sequence (P07949 whole entry C634W) above, with W634C counted along it
Chain of Proto-oncogene tyrosine-protein kinase receptor Ret (Homo sapiens, UniProt P07949, V804M) (P07949 29-1114 V804M limits assumed): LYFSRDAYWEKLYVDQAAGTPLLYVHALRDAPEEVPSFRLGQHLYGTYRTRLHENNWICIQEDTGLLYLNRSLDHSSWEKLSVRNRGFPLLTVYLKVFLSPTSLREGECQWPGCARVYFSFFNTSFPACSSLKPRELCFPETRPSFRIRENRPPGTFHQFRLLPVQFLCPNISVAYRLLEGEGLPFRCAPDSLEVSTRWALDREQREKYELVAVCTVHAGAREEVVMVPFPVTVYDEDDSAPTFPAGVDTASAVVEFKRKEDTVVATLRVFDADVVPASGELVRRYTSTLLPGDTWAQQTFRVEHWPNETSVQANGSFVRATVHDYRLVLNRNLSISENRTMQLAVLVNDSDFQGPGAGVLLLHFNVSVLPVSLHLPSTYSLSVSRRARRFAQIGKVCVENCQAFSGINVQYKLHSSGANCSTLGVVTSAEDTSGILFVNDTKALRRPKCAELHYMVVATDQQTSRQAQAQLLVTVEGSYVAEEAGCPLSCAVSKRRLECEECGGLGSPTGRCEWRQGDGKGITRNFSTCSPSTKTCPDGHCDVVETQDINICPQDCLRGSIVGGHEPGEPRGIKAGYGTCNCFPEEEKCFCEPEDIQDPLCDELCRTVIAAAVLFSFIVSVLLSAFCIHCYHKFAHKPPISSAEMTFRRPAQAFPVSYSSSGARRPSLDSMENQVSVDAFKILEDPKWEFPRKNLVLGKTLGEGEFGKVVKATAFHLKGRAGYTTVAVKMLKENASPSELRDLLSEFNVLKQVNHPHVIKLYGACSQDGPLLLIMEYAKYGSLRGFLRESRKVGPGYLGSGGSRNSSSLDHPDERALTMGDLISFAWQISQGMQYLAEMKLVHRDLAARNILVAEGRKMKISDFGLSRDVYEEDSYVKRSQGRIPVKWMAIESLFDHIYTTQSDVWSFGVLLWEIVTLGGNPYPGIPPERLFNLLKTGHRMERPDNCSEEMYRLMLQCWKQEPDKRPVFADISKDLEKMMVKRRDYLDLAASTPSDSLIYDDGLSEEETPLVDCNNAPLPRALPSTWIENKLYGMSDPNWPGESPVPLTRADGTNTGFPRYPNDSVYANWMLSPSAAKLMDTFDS
Chain of Proto-oncogene tyrosine-protein kinase receptor Ret (Homo sapiens), P07949 [V804M] (P07949 whole entry V804M): as the sequence (P07949 whole entry C634W) above, with W634C, V804M counted along it
Chain of Cytochrome P450 2C19 (P33261 whole entry): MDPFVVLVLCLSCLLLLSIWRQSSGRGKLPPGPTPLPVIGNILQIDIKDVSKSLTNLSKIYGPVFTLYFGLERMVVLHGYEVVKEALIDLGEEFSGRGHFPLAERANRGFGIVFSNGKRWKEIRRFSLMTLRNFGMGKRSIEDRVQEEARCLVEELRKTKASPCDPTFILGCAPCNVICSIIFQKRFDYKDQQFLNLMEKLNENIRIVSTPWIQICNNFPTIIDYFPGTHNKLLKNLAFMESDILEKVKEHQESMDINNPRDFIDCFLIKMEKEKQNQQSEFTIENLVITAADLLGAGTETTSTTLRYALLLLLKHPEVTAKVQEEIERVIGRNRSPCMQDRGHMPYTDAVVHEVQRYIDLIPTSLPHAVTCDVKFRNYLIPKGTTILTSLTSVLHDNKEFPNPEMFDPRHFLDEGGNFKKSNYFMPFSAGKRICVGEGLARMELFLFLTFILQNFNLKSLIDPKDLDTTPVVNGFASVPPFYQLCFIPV

CC(C)n1nc(-c2cc(C3CC3)on2)c2c(N)ncnc21
IC50 [1]: 96 nM | IC50 [2]: 65 nM | IC50 [3]: 142 nM | IC50 [4]: 39 nM | inhibition (INH) [5]: Not Active | half-life [6]: 13 min | IC50 [7]: 21 nM | GI50 at 240 h [8]: 13700 nM | IC50 [9]: 23 nM | GI50 [10]: 3000 nM | IC50 [11]: 4 nM | GI50 [12]: 90 nM | RatioGI50 [13]: 50 | GI50 [14]: 240 nM | IC50 (Cytochrome P450 3A4): > 30000 nM | IC50 (Cytochrome P450 2D6): > 30000 nM | Activity [15]: Non-toxic | Activity [16]: Non-toxic | IC50 [17]: 72 nM | Activity (TT): 150 CFU | GI50 [18]: 320 nM | GI50 [19]: 80 nM | IC50 [20]: 311 nM | IC50 [21]: 82 nM | IC50 [22]: 3 nM | IC50 [23]: 6 nM | IC50 (Cytochrome P450 2C9): > 30000 nM | IC50 [24]: 137 nM | IC50 [25]: 1.4 nM | IC50 (Cytochrome P450 2C19): > 30000 nM | IC50 [26]: 10 nM | IC50 (Cytochrome P450 1A2): 2000 nM | GI50 at 48 h [27]: > 10000 nM | IC50 [28]: 2 nM | GI50 [29]: 500 nM

CC(C)n1nc(-c2cc(C3CCCCC3)on2)c2c(N)ncnc21
GI50 at 240 h [8]: 4110 nM | GI50 [14]: > 10000 nM | GI50 [18]: 4730 nM | GI50 [19]: 9500 nM | IC50 [25]: 910 nM | GI50 at 48 h [27]: > 10000 nM

Nc1ncnc2c1c(-c1cc(C3CC3)on1)nn2C1CCOCC1
GI50 at 240 h [8]: 32900 nM | IC50 [11]: 41 nM | GI50 [14]: 940 nM | GI50 [18]: 1930 nM | GI50 [19]: 440 nM | IC50 [25]: 5 nM | GI50 at 48 h [27]: > 10000 nM

CCCCCCCn1nc(-c2cc(C3CC3)on2)c2c(N)ncnc21
GI50 at 240 h [8]: 31600 nM | IC50 [11]: 927 nM | GI50 [14]: > 10000 nM | GI50 [18]: > 10000 nM | GI50 [19]: > 10000 nM | IC50 [25]: 96 nM | GI50 at 48 h [27]: > 10000 nM

CCc1cc(-c2nn(C(C)C)c3ncnc(N)c23)no1
GI50 at 240 h [8]: 28600 nM | IC50 [11]: 531 nM | GI50 [14]: 2610 nM | GI50 [18]: 5770 nM | GI50 [19]: 1560 nM | IC50 [25]: 41 nM | GI50 at 48 h [27]: > 10000 nM

Reference: ChEMBL document CHEMBL3751668, “A Pyrazolo[3,4-d]pyrimidin-4-amine Derivative Containing an Isoxazole Moiety Is a Selective and Potent Inhibitor of RET Gatekeeper Mutants” (J Med Chem, 2016)
